How the values were obtained:
[1] = molecular target: T1, amylin receptors (Rattus norvegicus, UniProt P32214); experiment: amylin radioligand binding assay (125I-rat amylin, nucleus accumbens membranes); conditions: FIG. 10
T1 construct: This basal forebrain tissue, containing the nucleus accumbens and surrounding regions, was weighed and homogenized; from tissue; host or cells: rat basal forebrain (nucleus accumbens) membranes, male Sprague-Dawley rats
T1 sequence (P32214 25-516): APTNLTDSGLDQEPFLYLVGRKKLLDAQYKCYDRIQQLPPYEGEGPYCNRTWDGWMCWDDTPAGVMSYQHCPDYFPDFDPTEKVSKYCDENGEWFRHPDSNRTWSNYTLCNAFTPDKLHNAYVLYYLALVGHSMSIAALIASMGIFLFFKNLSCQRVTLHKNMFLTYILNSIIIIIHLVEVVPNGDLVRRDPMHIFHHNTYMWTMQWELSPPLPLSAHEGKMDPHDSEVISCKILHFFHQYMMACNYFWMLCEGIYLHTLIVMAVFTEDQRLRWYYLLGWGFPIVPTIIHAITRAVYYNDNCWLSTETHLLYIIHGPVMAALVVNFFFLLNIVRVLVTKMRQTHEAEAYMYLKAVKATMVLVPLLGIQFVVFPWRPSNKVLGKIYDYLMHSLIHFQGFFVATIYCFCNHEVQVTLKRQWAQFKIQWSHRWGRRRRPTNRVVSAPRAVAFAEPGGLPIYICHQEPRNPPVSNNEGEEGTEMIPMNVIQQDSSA
Procedure, shortened: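 Membranes from male Sprague-Dawley rat brain region rostral to hypothalamus, washed and resuspended in 20 mM HEPES with 0.2 mM PMSF. Incubation 60 min at 2 C, then filtration with cold PBS washes.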

[2] = molecular target: T2, calcitonin receptor (Homo sapiens, UniProt P30988); experiment: cAMP production in T47D cells (AlphaScreen)
T2 sequence (P30988 25-474): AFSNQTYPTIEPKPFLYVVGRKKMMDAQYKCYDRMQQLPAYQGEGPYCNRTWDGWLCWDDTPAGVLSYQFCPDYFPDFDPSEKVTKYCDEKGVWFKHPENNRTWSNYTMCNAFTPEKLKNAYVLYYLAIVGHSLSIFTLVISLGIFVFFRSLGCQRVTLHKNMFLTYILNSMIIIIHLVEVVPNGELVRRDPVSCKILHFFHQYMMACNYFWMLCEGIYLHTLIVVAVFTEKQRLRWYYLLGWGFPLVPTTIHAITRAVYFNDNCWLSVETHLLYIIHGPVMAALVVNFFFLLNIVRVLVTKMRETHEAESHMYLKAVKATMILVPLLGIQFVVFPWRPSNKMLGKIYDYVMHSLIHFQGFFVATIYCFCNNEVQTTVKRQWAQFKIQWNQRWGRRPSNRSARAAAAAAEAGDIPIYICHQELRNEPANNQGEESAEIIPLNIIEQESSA
From the text: Data from three exemplary independent alpha screen assays are summarized with EC50 values calculated in PRISM.

## CSCC[C@H](NC(=O)[C@H](CC(C)C)NC(=O)[C@H](CCC(N)=O)NC(=O)[C@H](Cc1c[nH]c2ccccc12)NC(=O)[C@H](CC(C)C)NC(=O)[C@H](CCCNC(=N)N)NC(=O)[C@H](Cc1c[nH]cn1)NC(=O)[C@H](CO)NC(=O)[C@H](CC(C)C)NC(=O)[C@H](CC(N)=O)NC(=O)[C@H](CCC(N)=O)NC(=O)[C@@H](NC(=O)[C@H](CCC(N)=O)NC(=O)[C@@H]1CSSC[C@H](NC(=O)CNC(=O)[C@@H](NC(=O)[C@H](CCCNC(=N)N)NC(=O)[C@H](CC(C)C)NC(=O)[C@H](CC(C)C)NC(=O)[C@H](CCC(N)=O)NC(=O)[C@H](C)NC(=O)[C@H](CCC(N)=O)NC(=O)[C@@H](N)[C@@H](C)O)C(C)C)C(=O)N[C@@H](C(C)C)C(=O)N[C@@H](CC(C)C)C(=O)NCC(=O)N[C@@H]([C@@H](C)O)C(=O)N1)C(C)C)C(=O)NCC(=O)N1CCC[C@H]1C(=O)N[C@@H](C)C(=O)NCC(=O)N[C@@H](CCCNC(=N)N)C(=O)N[C@@H](CCC(N)=O)C(=O)N[C@@H](CC(=O)O)C(=O)N[C@@H](CO)C(=O)N[C@@H](C)C(=O)N1CCC[C@H]1C(=O)N[C@H](C(=O)N[C@@H](CC(=O)O)C(=O)N1CCC[C@H]1C(=O)N[C@@H](CO)C(=O)N[C@@H](CO)C(=O)N1CCC[C@H]1C(=O)N[C@@H](Cc1c[nH]cn1)C(=O)N[C@@H](CO)C(=O)N[C@@H](Cc1ccc(O)cc1)C(N)=O)C(C)C [SEQ ID NO: 1]
[1]
  rank order of potency, displacement of bound amylin: amylin >CGRP>AFP-6 >>adrenomedullin>calcitonin
[2]
  rank order of potency, T47D cells: calcitonin>amylin >AFP-6=hCGRP alpha>adrenomedullin
